Experimental data: US20250281449A1, “NITROGEN-CONTAINING ANALOGS OF SALINOMYCIN FOR USE IN MULTIPLE MYELOMA (MM)” (Centre National de la Recherche Scientifique, priority 2021, published 2025)
Entries after “also recorded” stand apart in the source; their conditions may differ.

Assays:
Assay type in all cases: cell-based, human
Phospho-H2A.X (S139) = assay: DNA damage response, Phospho-H2A.X (S139) western blot; details: IC50 and 200 nM, 24H
Procedure: Cells were treated with iron chelators (80 μM Deferasirox), and Ironomycin (IC50 and 200 nM) during 24H. Protein levels of Phospho-H2A.X (S139) were analyzed by western blot and normalized by the histone 3 protein level.
The total cell lysates were obtained with RIPA 1× lysis buffer (#9806, Cell Signaling®) according with the supplier recommendations.
Protein lysates migrate on 10% polyacrylamide gel (NP-0301, Novex, Life Technologies®), in MOPS 1× running buffer (NP0001, Novex, Life Technologies®) or MES 1× running buffer NP-0002, Novex, Life Technologies®) and proteins are transferred to nitrocellulose membrane (1B301001, I-Blot Transfert Starck, NuPAGE, Life Technologies®). The primary antibodies mouse-anti-phospho-Histone H2A.X (Ser139) clone JBW301 ( 1/1000, Merck Millipore), anti-H3K36me3 (#ab9050, abcam®), anti-H3K27me3 (#9733, Cell Signaling®), anti-MMSET (#65127, Cell Signaling® et ab75359, abcam), anti-MYC (#5605, Cell Signaling®) were incubated in TBS-Tween 20 0.1% (Tris-Buffered Saline, pH 7.4) with 5% non-fat milk or Bovine serum albumin (Sigma-Aldrich, A7906). Protein levels are objectified by labeling with an anti-α-tubulin mouse monoclonal antibody (Sigma, T9026, St Louis, MO, USA 1/1000) or anti-Histone 3 (ab18521, abcam). […] Quantification of protein levels was performed with Image J® software (National Institutes of Health, Bethesda, MD, USA).

XG-7 cells = assay: Drug combination concentration matrix, viability by ATP quantification, Bliss synergy
Procedure: XG-7 or XG2 WT (XG2 neg) or XG2 melphalan resistant (XG2 Melph R) cell lines were respectively treated with increasing concentrations of ironomycin combined with melphalan during 96 h and cell viability was tested by ATP quantification to obtain the viability matrix. The synergy matrix was calculated as described in Material and Methods.
XG-7cells were treated with increasing concentrations of ironomycin combined with lenalidomide during 96 h and cell viability was tested by ATP quantification to obtain the viability matrix. The synergy matrix was calculated as described in Material and Methods.
XG-7cells were treated with increasing concentrations of ironomycin combined with pomalidomide during 96 h and cell viability was tested by ATP quantification to obtain the viability matrix. The synergy matrix was calculated as described in Material and Methods.
XG-7cells were treated with increasing concentrations of ironomycin combined with carfilzomib during 96 h and cell viability was tested by ATP quantification to obtain the viability matrix. The synergy matrix was calculated as described in Material and Methods.
XG-7cells were treated with increasing concentrations of ironomycin combined with AZD-5991 during 96 h and cell viability was tested by ATP quantification to obtain the viability matrix. The synergy matrix was calculated as described in Material and Methods
(§1) HMCL cell lines were cultured for 4 days in 96-well flat-bottom microtiter plates in RPMI 1640 medium or DMEM medium, 10% or 20% FCS (control medium) in the presence of various compounds. The number of viable cells in culture was determined using the Cell Titer-Glo Luminescent Cell Viability Assay from Promega, Madison, WI, USA using a Centro LB 960 luminometer (Berthold Technologies, Bad Wildbad, Germany).
The interaction between the drugs tested in vitro was investigated with a concentration matrix test, in which increasing concentration of each single drug were assessed with all possible combinations of the other drugs. For each combination, the percentage of expected growing cells in the case of effect independence was calculated according to the Bliss equation (Combes et al., 2019): […]
where fuC is the expected fraction of cells unaffected by the drug combination in the case of effect independence, and fuA and fuB are the fractions of cells unaffected by treatment A and B, respectively. The difference between the fraction of living cells in the cytotoxicity test and the fuC value was considered as an estimation of the interaction effect, with […]. Synergy matrix was built with the R package “SynergyFinder”.

MM cell lines = assay: Cell growth inhibition in panel of MM cell lines; details: 96H
Procedure: The panel of 17 HMCL cell lines were incubated with increasing concentrations of Ironomycin (A), AM23 (B) or vehicle for 96H.
as §1
This test is based on quantitation of the intracellular ATP present, which signals the presence of metabolically active cells. Data are expressed as the mean percentage of six replicates, normalized to the untreated control.
The therapeutic interest of iron metabolism inhibitors AM5 (Ironomycin) and AM23 was further investigated using large collection of 18 MM cell lines (Moreaux J et al. Haematologica 2011; Vikova V et al. Theranostics 2019). The IC50 of Ironomycin and AM23 respectively are illustrated in the Table 5 hereunder: […]

[1] = tested on: XG-1, XG-7 and OPM-2 cells; assay: Cell cycle analysis (BrdU incorporation/DAPI, flow cytometry); details: IC50 Ironomycin, 72 hours
Procedure: XG-1, XG-7 and OPM-2 cells were incubated with vehicle or with IC50 Ironomycin for 72 hours. Cell cycle was analyzed using flow cytometry, S phase was stained by an anti-BrdU antibody after BrdU incorporation and DNA content was strained by 4′,6-diamidino-2-phénylindole (DAPI). Histograms represent the mean percentage and SD of each cell cycle phase of three independent experiments. * and ** indicate a significant difference of P<0.05 and P<0.01, respectively with paired student t-test.
The cell cycle progression was studied by flow cytometry using the Apoptosis, DNA Damage, and Cell Proliferation Kit (562253, Becton Dickinson). Briefly, cells were labeled with bromodeoxyuridine (BrdU), an analog of the DNA precursor thymidine that can be incorporated into newly synthesized DNA and detected with an antibody against BrdU to measure cell proliferation. After this labeling, the cells were fixed, permeabilized and treated with DNase to expose the BrdU epitopes. Following this treatment, cells were simultaneously stained with fluorochrome-labeled anti-BrdU, anti-cleaved Poly A DP-ribose polymerase 1 (PARP), anti-H2AX phosphorylated at serine 139. They were also stained with DAPI to determine DNA content. Finally, cells were resuspended in staining buffer and analyzed by flow cytometry (Fortessa, Becton Dickinson).

[2] = tested on: pan-caspase, caspase3/7 and caspase 9 activity in OPM-2 cells; assay: Caspase activity by luminometry; details: OPM-2, 48H
Procedure: OPM-2 cells were treated as indicated during 48H and pan-caspase, caspase3/7 and caspase 9 activity were measured by luminometry. 4-OH-cyclophosphamide (80 μM) was used as a positive control (C).

C#CCN[C@@H]1C=C[C@]2(O[C@H]([C@@H](CC)C(=O)[C@@H](C)[C@@H](O)[C@H](C)[C@@H]3O[C@@H]([C@@H](CC)C(=O)O)CC[C@@H]3C)[C@@H](C)C[C@H]2C)O[C@@]12CC[C@@](C)([C@H]1CC[C@](O)(CC)[C@H](C)O1)O2 [Ironomycin]
DNA double strand breaks (Phospho-H2A.X (S139)): DNA double strand breaks
interaction effect, combined with AZD5991 (XG-7 cells; XG-7, 96 h): additive effect
interaction effect, combined with Lenalidomide (XG-7 cells; XG-7, 96 h): synergy
interaction effect, combined with Pomalidomide (XG-7 cells; XG-7, 96 h): synergy
interaction effect, combined with carfilzomib (XG-7 cells; XG-7, 96 h): additive effect
interaction effect, combined with melphalan (XG-7 cells; XG-7 or XG2 WT, 96 h): synergistic effect
cell growth inhibition / toxicity on MM cell lines (MM cell lines): significant cell growth inhibition; also recorded: kill MM cells with nanomolar concentration
proliferation of MM cells (cell cycle) [1]: inhibition of proliferation of MM cells
caspase activation [2]: activation of caspases 3/7 and 9
